Data taken from patent US11390664B2, “Antibodies that potently neutralize hepatitis B virus and uses thereof” (priority 2015, dated 2022).

B1: HBC34-v2: HBC34 variant, W107F in the CDR3 of the VH and W107A in the CDR3 of the VL (antibody, V domains shown)
VH: ELQLVESGGGWVQPGGSQRLSCAASGRIFRSFYMSWVRQAPGKGLEWVATINQDGSEKLYVDSVKGRFTISRDNAKNSLFLQMNNLRVEDTAVYYCAAFSGNSGGMDVWGQGTTVSVSS
VL: SYELTQPPSVSVSPGQTVSIPCSGDKLGNKNVCWFQHKPGQSPVLVIYEVKYRPSGIPERFSGSNSGNTATLTISGTQAMDEAAYFCQTADSTTVVFGGGTRLTVL

Key:
HBV (genotype D) = assay: HBV spreading in humanized uPA/SCID mice, treatment from 3 weeks post-infection; type: in vivo, uPA/SCID mice repopulated with primary human hepatocytes; conditions: for cccDNA measurements versus mice sacrificed 3 weeks post HBV infection: treated from week 3 to week 9 post-infection
[1] = test system: HBsAg serotypes (adw, ady and ayw); assay: ELISA binding to HBsAg serotypes; parameters: species or system hepatitis B virus; conditions: similar and low EC50 values
HBV = HBV neutralization on differentiated HepaRG cells; type: cell-based, hepatitis B virus; conditions: HBC34 result at 5 and 0.5 μg/ml, antibodies tested at 5, 0.5 and 0.05 μg/ml
Experimental: At the end of the incubation, the cells were washed and further cultivated. Medium was changed every 3 days. Infection was detected by measuring in enzyme-linked immunosorbent assay (ELISA) the levels of hepatitis B surface antigen (HBsAg) and hepatitis B e antigen (HBeAg) secreted into the culture supernatant from day 7 to 11 post-infection and by detecting HBcAg staining in an immunofluorescence assay.

[2] = test system: 19 different HBsAg genotype D mutants; type: binding, hepatitis B virus; conditions: 5 μg/ml
[3] = test system: antigenic loop region of the HBsAg; type: binding, hepatitis B virus; conditions: antibody at 1 μg/ml
HBV viral particles = assay: Western blot on HBV viral particles under reducing conditions; type: binding, hepatitis B virus
From the text: Ab4 is a comparative antibody, which is also reactive against the antigenic loop.

HBsAg (adw subtype) = assay: ELISA binding of HBC34 variants to HBsAg adw antigen; parameters: species or system hepatitis B virus; conditions: Example 11, 18 variants, FIG. 21

| Molecule | cccDNA measurements versus mice sacrificed 3 weeks post HBV infection (HBV (genotype D)) | binding to three HBsAg serotypes (adw, ady and ayw) [1] | neutralization of HBV infection (HBV) | number of the 19 HBsAg mutants bound [2] | binding to three additional peptides (SEQ ID NO 53, 54, 55) [3] | reactivity in western blot (HBV viral particles) | decrease of levels of circulating HBsAg (HBV (genotype D); baseline to week 6 of treatment (week 9 post-infection)) [log] | effect of mutation(s) on binding to HBsAg compared with parental HBC34 (HBsAg (adw subtype)) |
| --- | --- | --- | --- | --- | --- | --- | --- | --- |
| C=C1[C@H](CO)[C@@H](O)C[C@@H]1n1cnc2c(=O)[nH]c(N)nc21 [entecavir, reference compound] | did not differ significantly | – | – | – | – | – | – | – |
| HBC34: IgG1-type fully human monoclonal antibody against HBsAg antigenic loop; VH SEQ ID NO: 41, VL SEQ ID NO: 42 | did not differ significantly | binds with high affinity | neutralized completely | 18 | recognized with a lower signal | does not react at all | > 1 | – |
| B1 | – | – | – | – | – | – | – | completely abolished |
